# Experimental data: patent US10729133B2, “Cornfield herbicidal composition and application thereof” (priority 2016, dated 2020)
# Where “and” joins values, the source holds several entries; their conditions need not be identical. Equal entries are not always repeated.
# Experiments:
# Assay in all cases: Pot-culture stem and leaf treatment, fresh weight inhibition (Gowing method)
# Type in all cases: in vivo
# Echinochloa crusgalli = test system: Echinochloa crusgalli
# Excerpt: (§1) Echinochloa crusgalli, Setaria viridis, Chenopodium album, Amaranthus retrollexus were collected from corn fields in Qingdao of Shandong Province. Sonchus brachyotus were collected from corn fields in Shenyang of Liaoning Province. Rhizoma Cyperi, Convolvulus arvensis were collected from corn fields in Shangqiu of Henan Province. Cirsium setosum were collected from corn fields in Xiantao of Hubei Province.
# (§2) The above weeds were cultivated by a pot culture method. […] Full and uniform weed seeds were selected, soaked in warm water at 25° C. for 6 hours, and germinated in a 28° C. biochemical incubator (darkness). The weed seeds that had just germinated were evenly placed on the surface of the soil and then covered with 0.7 cm soil, and cultured in a controllable sunlight greenhouse after being treated with agents. A certain amount of water was added to the enamel pan regularly to keep the soil moist.
# (§3) The culture was carried out in a controllable sunlight greenhouse at 18 to 30° C., in natural light, and relative humidity of 57% to 72%.
# (§4) The technical materials were all dissolved in acetone, and diluted with an aqueous solution containing 0.1% emulsifier T-80. The dilution is performed as required.
# (§5) 3 pots with 20 weed seeds per pot were treated in one treatment with […] per treatment, that is, a total of 60 weeds were treated in one treatment.
# (§6) The agents were used for only once in the experiment. In the stage of weeds with 2 leaves and 1 core, the weeds were thinned out to maintain 15 weeds per pot and 45 weeds for each treatment, then continued to be cultured to 5-leaves and 1-core stage of Echinochloa crusgalli and Setaria viridis, and treated.
# (§7) The well-cultured weeds were evenly placed on a platform with an area of 0.5 m^2, and a solution of agents was sprayed on the stems and leaves thereof by the 3WP-2000-type walking spray tower at a dosage of 30 kg/ha and at a spray pressure of 0.3 MPa. After all the solution was sprayed, the valve was closed. After 30 seconds, the door of the spray tower was opened, and the nutritional bowl was taken out. Then the valve was opened, and the spray tube was cleaned by spraying 50 ml of water.
# (§8) A pot-culture method was employed. For the cultivation of weeds, please refer to the Section 1.1, and “Pesticide guidelines for laboratory bioactivity tests—herbicides”. As to a method for applying agents, please refer to the section 2.3.2, that is, a method for treating stems and leaves was employed.
# (§9) A method for investigating absolute number was employed, wherein whole seedlings of survival weeds were cut off with a blade along the soil surface, and the fresh weight of the weeds was weighed with an analytical balance. For dead weeds, the fresh weight thereof was zero.
# (§10) The investigation was performed after 20 days of the treatment for only once.
# (§11) An optimum ratio of the two active ingredients was determined by the actual control effect, characteristics of herbicides, and balance of a corresponding formula.
# (§12) Wherein, in the formula, X represented the fresh weight inhibition rate of A in a dosage of P, and Y represented the fresh weight inhibition rate of the active ingredient B in a dosage of Q.
# Rhizoma Cyperi = test system: Rhizoma Cyperi
# Excerpt: as §1, §2, §3, §4, §5, §6, §7, §8, §9, §10, §11, §12
# Setaria viridis = test system: Setaria viridis
# Excerpt: as §1, §2, §3, §4, §5, §6, §7, §8, §9, §10, §11, §12
# Cirsium setosum = test system: Cirsium setosum
# Excerpt: as §1, §2, §3, §4, §5, §6, §7, §8, §9, §10, §11, §12
# Sonchus brachyotus = test system: Sonchus brachyotus
# Excerpt: as §1
# (§13) The above weeds were cultivated by a pot culture method. […] Full and uniform weed seeds were selected, soaked in warm water at 25° C. for 6 hours, and germinated in a 28° C. biochemical incubator (darkness). […] A certain amount of water was added to the enamel pan regularly to keep the soil moist.
# as §4, §5, §6, §7, §8, §9, §10, §12
# Convolvulus arvensis = test system: Convolvulus arvensis
# Excerpt: as §1, §13, §4, §5, §6, §7, §8, §9, §10, §12
# Amaranthus retrollexus = conditions: Amaranthus retroflexus
# Excerpt: as §1, §13, §4, §5, §6, §7, §8, §9, §10, §12
# Chenopodium album = conditions: for actual fresh weight inhibition rate (%): Chenopodium album
# Excerpt: as §1, §13, §4, §5, §6, §7, §8, §9, §10, §12
# [1] = dosage of active ingredient 45 g/hm^2
# [2] = dosage of active ingredient 90 g/hm^2
# [3] = dosage of active ingredient 180 g/hm^2
# [4] = dosage of active ingredient 112.5 g/hm^2
# [5] = dosage of active ingredient 225 g/hm^2
# [6] = dosage of active ingredient 450 g/hm^2
structure (smiles),measurement,setting,value
CCn1ncc(C(=O)c2ccc(S(C)(=O)=O)c(COCC(F)(F)F)c2Cl)c1OC(=O)c1cn(C)nc1C [A1],actual fresh weight inhibition rate,Echinochloa crusgalli; dosage 45 g/hm^2,54.2% and 42.4%
same,actual fresh weight inhibition rate,Echinochloa crusgalli; dosage 90 g/hm^2,82.1% and 83.5%
same,actual fresh weight inhibition rate,Echinochloa crusgalli; dosage 180 g/hm^2,100%
same,actual fresh weight inhibition rate,Rhizoma Cyperi; dosage 45 g/hm^2,22.8%
same,actual fresh weight inhibition rate,Rhizoma Cyperi; dosage 90 g/hm^2,31.1%
same,actual fresh weight inhibition rate,Rhizoma Cyperi; dosage 180 g/hm^2,44.2%
same,actual fresh weight inhibition rate,Setaria viridis; dosage 45 g/hm^2,45.7% and 42.1% and 39.9%
same,actual fresh weight inhibition rate,Setaria viridis; dosage 90 g/hm^2,81.6% and 80.3% and 81.2%
same,actual fresh weight inhibition rate,Setaria viridis; dosage 180 g/hm^2,100%
same,actual fresh weight inhibition rate,Cirsium setosum; dosage 45 g/hm^2,19.3%
same,actual fresh weight inhibition rate,Cirsium setosum; dosage 90 g/hm^2,20.4%
same,actual fresh weight inhibition rate,Cirsium setosum; dosage 180 g/hm^2,38.5%
same,actual fresh weight inhibition rate,Sonchus brachyotus; dosage 45 g/hm^2,32.1%
same,actual fresh weight inhibition rate,Sonchus brachyotus; dosage 90 g/hm^2,53.2%
same,actual fresh weight inhibition rate,Sonchus brachyotus; dosage 180 g/hm^2,78.8%
same,actual fresh weight inhibition rate,Convolvulus arvensis; dosage 45 g/hm^2,23.2%
same,actual fresh weight inhibition rate,Convolvulus arvensis; dosage 90 g/hm^2,38.9%
same,actual fresh weight inhibition rate,Convolvulus arvensis; dosage 180 g/hm^2,48.2%
same,actual fresh weight inhibition rate (%),Amaranthus retrollexus; [1],45.7%
same,actual fresh weight inhibition rate (%),Amaranthus retrollexus; [2],81.6%
same,actual fresh weight inhibition rate (%),Amaranthus retrollexus; [3],100%
same,actual fresh weight inhibition rate (%),Chenopodium album; [1],19.1%
same,actual fresh weight inhibition rate (%),Chenopodium album; [2],30.2%
same,actual fresh weight inhibition rate (%),Chenopodium album; [3],48.7%
same,actual fresh weight inhibition rate,Chenopodium album; dosage 45 g/hm^2,19.1%
same,actual fresh weight inhibition rate,Chenopodium album; dosage 90 g/hm^2,30.2%
same,actual fresh weight inhibition rate,Chenopodium album; dosage 180 g/hm^2,48.7%
CC(C)c1nn(C(=O)NC(C)(C)C)c(=O)n1N [amicarbazone],actual fresh weight inhibition rate (%),Amaranthus retrollexus; [4],21.6%
same,actual fresh weight inhibition rate (%),Amaranthus retrollexus; [5],31.9%
same,actual fresh weight inhibition rate (%),Amaranthus retrollexus; [6],41.8%
same,actual fresh weight inhibition rate (%),Chenopodium album; [4],36.5%
same,actual fresh weight inhibition rate (%),Chenopodium album; [5],45.9%
same,actual fresh weight inhibition rate (%),Chenopodium album; [6],64.3%
CCNc1nc(Cl)nc(NC(C)C)n1 [atrazine],actual fresh weight inhibition rate,Echinochloa crusgalli; dosage 375 g/hm^2,20.3%
same,actual fresh weight inhibition rate,Echinochloa crusgalli; dosage 750 g/hm^2,34.2%
same,actual fresh weight inhibition rate,Echinochloa crusgalli; dosage 1500 g/hm^2,45.1%
same,actual fresh weight inhibition rate,Setaria viridis; dosage 375 g/hm^2,21.3%
same,actual fresh weight inhibition rate,Setaria viridis; dosage 750 g/hm^2,31.4%
same,actual fresh weight inhibition rate,Setaria viridis; dosage 1500 g/hm^2,41.4%
CC(C)N1C(=O)c2ccccc2NS1(=O)=O [bentazone],actual fresh weight inhibition rate,Rhizoma Cyperi; dosage 150 g/hm^2,65.3%
same,actual fresh weight inhibition rate,Rhizoma Cyperi; dosage 300 g/hm^2,83.5%
same,actual fresh weight inhibition rate,Rhizoma Cyperi; dosage 600 g/hm^2,92.1%
same,actual fresh weight inhibition rate,Chenopodium album; dosage 150 g/hm^2,56.5%
same,actual fresh weight inhibition rate,Chenopodium album; dosage 300 g/hm^2,75.9%
same,actual fresh weight inhibition rate,Chenopodium album; dosage 600 g/hm^2,94.3%
CCCCCCCC(=O)Oc1c(Br)cc(C#N)cc1Br [bromoxynil octanoate],actual fresh weight inhibition rate,Sonchus brachyotus; dosage 112.5 g/hm^2,56.2%
same,actual fresh weight inhibition rate,Sonchus brachyotus; dosage 225 g/hm^2,78.3%
same,actual fresh weight inhibition rate,Sonchus brachyotus; dosage 450 g/hm^2,99.2%
same,actual fresh weight inhibition rate,Convolvulus arvensis; dosage 112.5 g/hm^2,58.9%
same,actual fresh weight inhibition rate,Convolvulus arvensis; dosage 225 g/hm^2,79.2%
same,actual fresh weight inhibition rate,Convolvulus arvensis; dosage 450 g/hm^2,98.1%
CCCCOCN(C(=O)CCl)c1c(CC)cccc1CC [butachlor],actual fresh weight inhibition rate,Echinochloa crusgalli; dosage 375 g/hm^2,2.4%
same,actual fresh weight inhibition rate,Echinochloa crusgalli; dosage 750 g/hm^2,3.9%
same,actual fresh weight inhibition rate,Echinochloa crusgalli; dosage 1500 g/hm^2,5.4%
same,actual fresh weight inhibition rate,Setaria viridis; dosage 375 g/hm^2,2.7%
same,actual fresh weight inhibition rate,Setaria viridis; dosage 750 g/hm^2,3.8%
same,actual fresh weight inhibition rate,Setaria viridis; dosage 1500 g/hm^2,5.9%
COc1c(Cl)ccc(Cl)c1C(=O)O [dicamba],actual fresh weight inhibition rate,Convolvulus arvensis; dosage 75 g/hm^2,64.4%
same,actual fresh weight inhibition rate,Convolvulus arvensis; dosage 150 g/hm^2,78.9%
same,actual fresh weight inhibition rate,Convolvulus arvensis; dosage 300 g/hm^2,92.8%
same,actual fresh weight inhibition rate,Chenopodium album; dosage 75 g/hm^2,66.2%
same,actual fresh weight inhibition rate,Chenopodium album; dosage 150 g/hm^2,85.3%
same,actual fresh weight inhibition rate,Chenopodium album; dosage 300 g/hm^2,100%
O=C(Nc1ccc(F)cc1F)c1cccnc1Oc1cccc(C(F)(F)F)c1 [diflufenican],actual fresh weight inhibition rate,Echinochloa crusgalli; dosage 75 g/hm^2,7.2%
same,actual fresh weight inhibition rate,Echinochloa crusgalli; dosage 150 g/hm^2,9.4%
same,actual fresh weight inhibition rate,Echinochloa crusgalli; dosage 300 g/hm^2,10.3%
same,actual fresh weight inhibition rate,Setaria viridis; dosage 75 g/hm^2,3.9%
same,actual fresh weight inhibition rate,Setaria viridis; dosage 150 g/hm^2,8.3%
same,actual fresh weight inhibition rate,Setaria viridis; dosage 300 g/hm^2,10.5%
Nc1c(Cl)c(F)nc(OCC(=O)O)c1Cl [fluroxypyr],actual fresh weight inhibition rate,Cirsium setosum; dosage 60 g/hm^2,56.2%
same,actual fresh weight inhibition rate,Cirsium setosum; dosage 120 g/hm^2,79.2%
same,actual fresh weight inhibition rate,Cirsium setosum; dosage 240 g/hm^2,95.4%
same,actual fresh weight inhibition rate,Convolvulus arvensis; dosage 60 g/hm^2,63.2%
same,actual fresh weight inhibition rate,Convolvulus arvensis; dosage 120 g/hm^2,78.2%
same,actual fresh weight inhibition rate,Convolvulus arvensis; dosage 240 g/hm^2,92.2%
COC(=O)c1c(Cl)nn(C)c1S(=O)(=O)NC(=O)Nc1nc(OC)cc(OC)n1 [halosulfuron-methyl],actual fresh weight inhibition rate,Rhizoma Cyperi; dosage 15 g/hm^2,67.2%
same,actual fresh weight inhibition rate,Rhizoma Cyperi; dosage 30 g/hm^2,89.3%
same,actual fresh weight inhibition rate,Rhizoma Cyperi; dosage 60 g/hm^2,100%
CSc1nnc(C(C)(C)C)c(=O)n1N [metribuzin],actual fresh weight inhibition rate,Echinochloa crusgalli; dosage 112.5 g/hm^2,22.4%
same,actual fresh weight inhibition rate,Echinochloa crusgalli; dosage 225 g/hm^2,32.1%
same,actual fresh weight inhibition rate,Echinochloa crusgalli; dosage 450 g/hm^2,42.5%
same,actual fresh weight inhibition rate,Setaria viridis; dosage 112.5 g/hm^2,21.5%
same,actual fresh weight inhibition rate,Setaria viridis; dosage 225 g/hm^2,33.6%
same,actual fresh weight inhibition rate,Setaria viridis; dosage 450 g/hm^2,43.5%
COc1cc(OC)nc(NC(=O)NS(=O)(=O)c2ncccc2C(=O)N(C)C)n1 [nicosulfuron],actual fresh weight inhibition rate,Echinochloa crusgalli; dosage 15 g/hm^2,33.1%
same,actual fresh weight inhibition rate,Echinochloa crusgalli; dosage 30 g/hm^2,74.5%
same,actual fresh weight inhibition rate,Echinochloa crusgalli; dosage 60 g/hm^2,100%
same,actual fresh weight inhibition rate,Setaria viridis; dosage 15 g/hm^2,45.7%
same,actual fresh weight inhibition rate,Setaria viridis; dosage 30 g/hm^2,79.6%
same,actual fresh weight inhibition rate,Setaria viridis; dosage 60 g/hm^2,100%
CCc1cccc(C)c1N(C(=O)CCl)[C@@H](C)COC [s-metolachlor],actual fresh weight inhibition rate,Echinochloa crusgalli; dosage 375 g/hm^2,2.5%
same,actual fresh weight inhibition rate,Echinochloa crusgalli; dosage 750 g/hm^2,3.4%
same,actual fresh weight inhibition rate,Echinochloa crusgalli; dosage 1500 g/hm^2,5.6%
same,actual fresh weight inhibition rate,Setaria viridis; dosage 375 g/hm^2,2.9%
same,actual fresh weight inhibition rate,Setaria viridis; dosage 750 g/hm^2,3.9%
same,actual fresh weight inhibition rate,Setaria viridis; dosage 1500 g/hm^2,6.2%
CCNc1nc(Cl)nc(NC(C)(C)C)n1 [terbuthylazine],actual fresh weight inhibition rate,Echinochloa crusgalli; dosage 375 g/hm^2,31.4%
same,actual fresh weight inhibition rate,Echinochloa crusgalli; dosage 750 g/hm^2,42.1%
same,actual fresh weight inhibition rate,Echinochloa crusgalli; dosage 1500 g/hm^2,51.7%
same,actual fresh weight inhibition rate,Setaria viridis; dosage 375 g/hm^2,25.2%
same,actual fresh weight inhibition rate,Setaria viridis; dosage 750 g/hm^2,30.6%
same,actual fresh weight inhibition rate,Setaria viridis; dosage 1500 g/hm^2,42.3%
